Results published in patent US8575307B2, “Protein kinase C inhibitors for prevention of insulin resistance and type 2 diabetes” (Hadasit Medical Research Services & Development Ltd., priority 2005, dated 2013).
Square brackets hold non-standard residues; d marks the D form. * marks the point of attachment. Myristoyl = CCCCCCCCCCCCCC(=O)*

What was measured:
[1] = system: nutritionally induced type 2 diabetes in Psammomys obesus; assay: Nutritionally induced diabetes in Psammomys obesus model: whole blood glucose by glucometer; assay type: in vivo; details: diabetic Psammomys on high energy diet; three intraperitoneal injections of 10 mg/kg, 5 days apart
Description: Psammomys obesus gerbils males or females weighing 160-200 g in the fed state were used. […] The animals were then injected intraperitoneally with 10 mg/kg of the peptide dissolved in dimethylsulphoxide solvent (or with solvent alone in controls). […] Whole blood glucose was measured by a glucometer on a minidroplet of blood withdrawn from the end of the tail. Three injections were given 5 days apart and after 14 days or earlier the high blood glucose levels of the animals became normal, the controls remained at the 300-400 mg/dl level. The normal level lasted at least for 3 to 5 days after the last injection. […] The line with asterisk represents the control animal. Other lines are those of individual injected animals.

[2] = system: pancreatic beta cells; assay: Histology (hematoxylin-eosin) and insulin immunostaining of pancreatic beta cells; assay type: in vivo, Psammomys obesus; details: diabetic Psammomys, peptide treatment for 14 days
Description: For assaying the insulin signaling pathway components and electronmicroscopic examination of the pancreatic beta cells, animals were killed by decapitation in the fed state in the morning three days after the third intraperitoneal peptide injection. Blood was collected and serum insulin levels was determined by radioimmunoassay, using anti-human antibodies. The gastrocnemius muscles from both legs were excised, immediately frozen in liquid nitrogen, and then stored at −80° C. The electronmicroscopic examination of pancreatic beta cells was performed on slices of pancreatic paraffin blocks according to the method of Joins et al., 2002, Virchovs Arch 440: 63-69. The histologic and immunostaining properties of the pancreatic beta cells in diabetic Psammomys gerbils injected with peptide 12 were investigated in order to check whether the beta cells are protected from hyperglycemia. […] FIGS. 5A and 5B describe representative hematoxylin-eosin stained beta cell and insulin immunostained beta cells in diabetic and treated animals.

[3] = system: serine phosphorylation of IRS by PKC; assay: Immunoblot of serine phosphorylation of IRS in muscle lysates; assay type: in vivo, Psammomys obesus; details: treated vs non-treated animal
Description: (§1) For assaying the insulin signaling pathway components and electronmicroscopic examination of the pancreatic beta cells, animals were killed by decapitation in the fed state in the morning three days after the third intraperitoneal peptide injection. Blood was collected and serum insulin levels was determined by radioimmunoassay, using anti-human antibodies. The gastrocnemius muscles from both legs were excised, immediately frozen in liquid nitrogen, and then stored at −80° C.
(§2) Immunoblot analysis of insulin signaling molecules were performed using muscle homogenates prepared in a homogenization buffer that contained 20 mmol/l HEPES, 8 mmol/l EDTA, 0.2 mmol/l Na3VO4, 10 mmol/l Na4P2O7, 2.5 mmol/l, 2 mM phenylmathylsulfonyl fluorid, 160 mmol/l NaF, 2 mmol/l DCA, 1% Triton X-100, 1% protease inhibitor cocktail and 1% phaphatase inhibitor cocktail (Sigma®) pH 7.4. Equal amount of cell lysate were dissolved in Laemmli buffer and subjected to SDS-PAGE gel separation. The separated proteins were transferred to nitrocellulose membranes. […] All protein data were quantified by densitometry. […]
(§3) The extent of phosphorylation of the components of the insulin signaling pathway (signal proteins) in the muscle lysates of the treated and non-treated animals “ ” was investigated. FIG. 6 presents the relative extent of serine phosphorylation of IRS by PKC as determined by immunobloting with a specific antibody. […]

[4] = system: PKB/AKT; assay: Immunoblot of serine phosphorylation of PKB/AKT in muscle lysates; assay type: in vivo, Psammomys obesus; details: treated vs non-treated animal
Description: as §1, §2, §3

[5] = system: glucose transporter GLUT4 protein; assay: Immunoblot of GLUT4 protein amount in muscle lysates; assay type: in vivo, Psammomys obesus; details: treated vs non-treated animal
Description: as §1, §2, §3

## myristoyl-Gly-Asn-Leu-Met-Phe-Gln-Ile-Gln-Arg-Ser-Arg-Lys-Phe-amide (Myristoyl-GNLMFQIQRSRKF-NH2; SMILES CCCCCCCCCCCCCC(=O)NCC(=O)N[C@@H](CC(N)=O)C(=O)N[C@@H](CC(C)C)C(=O)N[C@@H](CCSC)C(=O)N[C@@H](Cc1ccccc1)C(=O)N[C@@H](CCC(N)=O)C(=O)N[C@H](C(=O)N[C@@H](CCC(N)=O)C(=O)N[C@@H](CCCNC(=N)N)C(=O)N[C@@H](CO)C(=O)N[C@@H](CCCNC(=N)N)C(=O)N[C@@H](CCCCN)C(=O)N[C@@H](Cc1ccccc1)C(N)=O)[C@@H](C)CC) [peptide 16, myristoylated peptide analog derived from the αD region of PKC-ε]
[1]
  hypoglycemic effect (blood glucose): hypoglycemic effect

## myristoyl-Gly-Met-Ala-(D)Lys-Gln-Pro-Pro-Phe-amide (Myristoyl-GMA[dK]QPPF-NH2; SMILES CCCCCCCCCCCCCC(=O)NCC(=O)N[C@@H](CCSC)C(=O)N[C@@H](C)C(=O)N[C@H](CCCCN)C(=O)N[C@@H](CCC(N)=O)C(=O)N1CCC[C@H]1C(=O)N1CCC[C@H]1C(=O)N[C@@H](Cc1ccccc1)C(N)=O) [peptide 7, myristoylated peptide analog derived from the HJ region of PKC-ε]
[1]
  hypoglycemic effect (blood glucose): hypoglycemic effect

## myristoyl-Gly-Phe-Gln-Ile-Gln-Arg-Ser-Arg-Lys-Phe-Asn-amide (Myristoyl-GFQIQRSRKFN-NH2; SMILES CCCCCCCCCCCCCC(=O)NCC(=O)N[C@@H](Cc1ccccc1)C(=O)N[C@@H](CCC(N)=O)C(=O)N[C@H](C(=O)N[C@@H](CCC(N)=O)C(=O)N[C@@H](CCCNC(=N)N)C(=O)N[C@@H](CO)C(=O)N[C@@H](CCCNC(=N)N)C(=O)N[C@@H](CCCCN)C(=O)N[C@@H](Cc1ccccc1)C(=O)N[C@@H](CC(N)=O)C(N)=O)[C@@H](C)CC) [peptide 12, myristoylated peptide analog derived from the αD region of PKC-ε]
[1]
  hypoglycemic effect (blood glucose): hypoglycemic effect
[2]
  immunostainable insulin content of the pancreatic beta cells: replenished
[2]; hematoxylin-eosin staining
  beta cell structure: markedly improved
[3]
  relative extent of serine phosphorylation of IRS by PKC: much lower
[4]
  relative extent of phosphorylation of serine in PKB/AKT: reduced
[5]
  relative amount of the glucose transporter GLUT4 protein: elevated
